Assay results published in patent US7470703B1 (priority 2004, dated 2008).
pEC50, pKi: −log10 of the molar value. Where two headings read alike, the source gives them in different places. Marks after values point to notes of the source that are not given here.

Legend:
mouse cremaster muscle [1] = assay: Ex vivo mouse cremaster muscle vasoconstriction model; settings: for pEC50: Mus musculus, read-out: EC50 (vasoconstriction concentration-response)
human α2C-AR [2] = biological target: T1, human α2C-AR (Homo sapiens, UniProt P18825); assay: Radioligand binding ([3H]rauwolscine) in CHO cells expressing human α2C-AR; parameters: expressed in transfected cells; settings: for binding affinity for the α2C-AR greater than on the α1-AR subtypes: comparing Tables 1 and 3; for selectivity in binding to the α2C- versus the α2A-AR / selectivity in binding to the α2C- versus the α2B-AR: from binding affinities
T1 sequence (P18825 1-462): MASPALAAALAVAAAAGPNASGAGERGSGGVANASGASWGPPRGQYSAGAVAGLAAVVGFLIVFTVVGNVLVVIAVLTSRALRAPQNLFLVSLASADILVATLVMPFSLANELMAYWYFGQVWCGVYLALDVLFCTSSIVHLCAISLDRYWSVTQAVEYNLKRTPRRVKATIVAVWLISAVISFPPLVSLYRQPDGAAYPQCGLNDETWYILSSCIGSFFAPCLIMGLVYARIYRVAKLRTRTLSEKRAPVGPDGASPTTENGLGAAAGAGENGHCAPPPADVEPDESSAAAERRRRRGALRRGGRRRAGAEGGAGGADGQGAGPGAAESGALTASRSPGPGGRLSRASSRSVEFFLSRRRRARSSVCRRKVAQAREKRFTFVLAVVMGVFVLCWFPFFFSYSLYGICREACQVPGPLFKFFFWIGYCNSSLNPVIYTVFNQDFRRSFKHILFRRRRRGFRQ
Method: (§1) Radioligand binding studies were conducted in CHO cells expressing homogeneous populations of α2A-, α2B- and α2C-ARs. Similar studies were performed in HEK293 cells expressing homogeneous populations of α1A-, α1B- and α1D-ARs. Briefly, CHO cells were harvested using Ham's F-12 media following trypsinization while HEK293 cells were detached by simple scraping. The cell suspension was centrifuged and the pellet re-suspended in Tris-EDTA buffer, pH 7.4. […] The assays were conducted in a final volume of 2 ml. Non-specific binding was determined in the presence of 10 μM phentolamine. The percentage of specific binding was determined by dividing the difference between the total bound (dpm) and nonspecific bound (dpm) by the total bound (dpm). […] Inhibition of specific binding by the competitors was determined using varying concentrations of the analogs. Incubations were terminated at 60 minutes by rapid filtration over Whatman GF/C glass fiber filters (Maidstone, UK) using a cell harvester (Brandel Inc., Gaithersburg, Md.). The filter discs were washed three times with Tris-EDTA buffer, pH 7.4, at 4° C. The radioactivity was quantified by using a Packard TRI-CARB 2900 TR Liquid Scintillation Analyzer (Packard Instrument Company, CT, USA) and data analyzed using GraphPad Prism (GraphPad Software, San Diego, Calif., USA).
(§2) Scatchard analyses were carried out using varying concentrations of selected radioligands to determine their affinities (KD) and maximal binding characteristics (Bmax). […] The total and nonspecific binding for each concentration was determined in triplicate. The specific binding, at each concentration of the radioligand, was established and plotted as bound ligand versus bound/free ligand and the corresponding KD and Bmax values calculated on each human α-AR subtype. Data are expressed as the mean±S.E.M. of n=6-9 experiments.
(§3) Individual pKi values are used to determine whether there are significant differences among means of the analogs on the three α2-AR subtypes. […] The final data are presented as mean±SEM of n=4 or more experiments.
(§4) Ki and IC50 values were calculated as described above.

mouse cremaster muscle [3] = assay: In vivo mouse cremaster muscle vessel diameter; settings: intravenous 2 mg/kg, 37° C., n=6
Text: It is expected that this model also adequately represent the vasodilation in humans.

human α2B-AR = biological target: T2, human α2B-AR (Homo sapiens, UniProt P18089); assay: Radioligand binding ([3H]rauwolscine) in CHO cells expressing human α2B-AR
T2 construct: expressed in transfected cells
T2 sequence (P18089 1-450): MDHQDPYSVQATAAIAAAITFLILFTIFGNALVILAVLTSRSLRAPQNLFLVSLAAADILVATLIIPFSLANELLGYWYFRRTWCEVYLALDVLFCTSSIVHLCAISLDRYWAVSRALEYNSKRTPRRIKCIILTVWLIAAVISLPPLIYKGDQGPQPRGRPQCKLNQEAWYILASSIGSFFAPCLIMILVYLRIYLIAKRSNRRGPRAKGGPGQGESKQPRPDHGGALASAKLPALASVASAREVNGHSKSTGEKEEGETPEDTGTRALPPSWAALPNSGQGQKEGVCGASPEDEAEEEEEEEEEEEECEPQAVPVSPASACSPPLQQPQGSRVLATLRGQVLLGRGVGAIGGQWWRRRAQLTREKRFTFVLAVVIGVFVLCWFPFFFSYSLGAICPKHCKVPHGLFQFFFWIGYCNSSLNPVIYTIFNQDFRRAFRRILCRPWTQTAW
Method: as §1, §2, §3, §4

human α2A-AR [4] = biological target: T3, human α2A-AR (Homo sapiens, UniProt P08913); assay: Radioligand binding ([3H]rauwolscine) in CHO cells expressing human α2A-AR; parameters: expressed in transfected cells
T3 sequence (P08913 1-465): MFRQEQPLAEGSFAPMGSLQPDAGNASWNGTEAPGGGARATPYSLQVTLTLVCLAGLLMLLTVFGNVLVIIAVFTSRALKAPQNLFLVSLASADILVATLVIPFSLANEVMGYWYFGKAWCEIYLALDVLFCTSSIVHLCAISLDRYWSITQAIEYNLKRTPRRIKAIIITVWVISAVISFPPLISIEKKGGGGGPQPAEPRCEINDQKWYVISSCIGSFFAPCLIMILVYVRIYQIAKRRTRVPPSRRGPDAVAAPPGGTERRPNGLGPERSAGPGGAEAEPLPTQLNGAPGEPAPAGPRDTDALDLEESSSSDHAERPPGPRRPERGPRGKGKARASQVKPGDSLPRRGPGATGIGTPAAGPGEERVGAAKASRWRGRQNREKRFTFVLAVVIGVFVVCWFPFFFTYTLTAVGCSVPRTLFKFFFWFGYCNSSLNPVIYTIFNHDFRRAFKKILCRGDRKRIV
Method: as §1, §2, §3, §4

human α2C-AR [5] = biological target: T1, human α2C-AR; parameters: expressed in transfected cells; settings: literature; cited from earlier work
human α2C-AR [6] = biological target: T1, human α2C-AR; assay: cell-based
Method: (§5) The reporter gene assays were conducted in CHO cells expressing the human α2A- and α2C-AR subtype. The cells were grown to confluence, upon which they were isolated and electroporated in the presence of the plasmid. […] Cells were transiently transfected with the 6 CRE-LUC plasmid (5 μg/100 μl of cell suspension) using electroporation at 150 V, 70 ms, single pulse. Transfected cells were plated into a 96-well microplate at a density of approximately 50,000 cells per well and allowed to grow for 20 hours.
(§6) The assays with both α2A- and α2C-ARs were conducted using the non-subtype selective α2-AR agonist, medetomidine, to block the cAMP changes induced by the adenyl cyclase activator, forskolin. […] Basal values (solvent control) were subtracted from the forskolin values and the resulting forskolin response was used as 100%. Similarly, basal values were subtracted from all other values obtained with ligands, and the data expressed as a percentage luciferase response relative to that of forskolin alone.
(§7) The agonist ligand, medetomidine, was added directly to the medium 20 minutes prior to the addition of forskolin and then allowed to incubate for 4 hours. […] These compounds were added 20 minutes prior to the addition of medetomidine.

human α2A-AR [7] = biological target: T3, human α2A-AR; assay: cell-based
Method: as §5, §6, §7

[8] = CHO cells, [3H]rauwolscine competition
[9] = CHO, read-out: inhibition of forskolin-induced cAMP response (luciferase)

With `COC(=O)[C@@H]1[C@H]2C[C@H]3c4[nH]c5ccccc5c4CCN3C[C@@H]2CC[C@@H]1O` [Compound 1, Yohimbine] as the molecule, how does the “reversal of medetomidine induced vasoconstriction” value (mouse cremaster muscle [1]; 30, 100, and 300 nM) read?
The value was “reversed”.

And the “binding affinity for the α2C-AR greater than on the α1-AR subtypes” value (human α2C-AR [2])?
The value was “at least 224 fold”.

What about the “increase in vessel diameter” value (mouse cremaster muscle [3]) of the same molecule?
The value was 22.14±1.08%.

Which results are given for `O=C(O)[C@@H]1[C@H]2C[C@H]3c4[nH]c5ccccc5c4CCN3C[C@@H]2CC[C@@H]1O` [Compound 2, Yohimbinic acid]?
binding at the α2B-AR versus the α2A-AR (human α2B-AR): 46 fold; decrease in binding potency at the α2B-AR as compared to yohimbine (human α2B-AR): 2 fold; pKi (human α2B-AR; CHO cells): 7.87; decrease in binding potency at the α2A-AR as compared to yohimbine (human α2A-AR [4]): 345 fold; pKi (human α2A-AR [4]; CHO cells): 6.21; decrease in binding potency at the α2C-AR as compared to yohimbine (human α2C-AR [2]): 20 fold; pKi (human α2C-AR [2]; CHO cells): 7.71; selectivity in binding to the α2C- versus the α2A-AR (human α2C-AR [2]): around 32 fold; selectivity in binding to the α2C- versus the α2B-AR (human α2C-AR [2]): equipotent

With `O=C(NCCCNC(=O)C1C(O)CCC2CN3CCc4c([nH]c5ccccc45)C3CC21)C1C(O)CCC2CN3CCc4c([nH]c5ccccc45)C3CC21` (stereo not drawn) [Compound 3] as the molecule, how does the pKi (human α2B-AR; CHO cells) read?
The pKi was 6.22.

What about the “α2B pKi ± SEM” value (human α2B-AR; [8]) of the same molecule?
The value was 6.22 ± 0.03.

What about the pKi (human α2A-AR [4]; CHO cells) of the same molecule?
The pKi was 6.80.

And the “α2A pKi ± SEM” value (human α2A-AR [4]; [8])?
Its value is 6.80 ± 0.02^a.

And the “selectivity in binding to the α2C- versus α2A-AR (Lalchandani et al. 2002)” value (human α2C-AR [5])?
The value was 32 fold.

What about the “selectivity in binding to the α2C- versus α2B-AR (Lalchandani et al. 2002)” value (human α2C-AR [5]) of the same molecule?
Its value is 355 fold.

And the pKi (human α2C-AR [2]; CHO cells)?
The pKi was 8.05.

And the “α2C pKi ± SEM” value (human α2C-AR [2]; [8])?
Its value is 8.05 ± 0.04^b.

What about the “selectivity in binding to the α2C- versus the α2A-AR” value (human α2C-AR [2]) of the same molecule?
The value was 18 fold.

And the “selectivity in binding to the α2C- versus the α2B-AR” value (human α2C-AR [2])?
The value was 68 fold.

For `Cc1cccc(C(C)c2cnc[nH]2)c1C` (stereo not drawn) [medetomidine], which inhibition at 1 µM (human α2C-AR [6]; [9]) is on record?
Its inhibition at 1 µM is 70%.

What about the “increase in cAMP levels, alone (in the absence of forskolin)” value (human α2C-AR [6]; α2C-AR, 1 μM) of the same molecule?
The value was “did not show an increase in cAMP levels”.

And the inhibition at 0.01 µM (human α2A-AR [7]; [9])?
Its inhibition at 0.01 µM is 56%.

And the “increase in cAMP levels, alone (in the absence of forskolin)” value (human α2A-AR [7]; α2A-AR, 10 μM)?
Its value is 17%.

What about the “shift of the curve (to the left) at the lower temperature” value (mouse cremaster muscle [1]; 25° C. vs 37° C.) of the same molecule?
The value was 10 fold.

And the pEC50 (mouse cremaster muscle [1]; 25° C.)?
Its pEC50 is 8.67.

What about the pEC50 (mouse cremaster muscle [1]; 37° C.) of the same molecule?
Its pEC50 is 7.69.

Which “Bmax α2A” value (human α2A-AR [4]; saturation binding, CHO cells) does the source give for [^3H]rauwolscine [[^3H]rauwolsine] here?
The value was 8.20±0.71 pmoles/mg protein.

What about the “Bmax α2C” value (human α2C-AR [2]; saturation binding, CHO cells) of the same molecule?
The value was 1.20±0.13 pmoles/mg protein.

What does the source list for “yohimbine benzyl carbamate propyl amine [Compound 7]”?
mean percent inhibition (of the medetomidine response) (human α2A-AR [7]; α2A-AR, test compound 0.1 μM, medetomidine 0.01 μM, forskolin 5 μM): 54%; binding affinity for the α2C-AR greater than on the α1-AR subtypes (human α2C-AR [2]): ≥ 562 fold
